From US10669287B2, “Curcumin-boron complex and pharmaceutical containing same” (JAPAN SCIENCE AND TECHNOLOGY AGENCY, priority 2016, dated 2020)
Like-named read-outs stand apart in the source and are kept apart here.

Assays:
Aβ1-42 [1] = molecular target: T1, Aβ1-42 (Homo sapiens, UniProt P05067); assay: Degree of oxygenation of pre-aggregated Aβ1-42 (MALDI-TOF MS), Test Example 10; type: biochemical; conditions: pre-aggregated Aβ1-42 20 μM, catalyst 2 μM, 37° C., 30 minutes; for Degree of oxygenation (%) of Aβ42 (λ = 660 nm): phosphate buffer pH 7.4, 660 nm; for Degree of oxygenation (%) of Aβ42 (λ = 780 nm): phosphate buffer pH 7.4, 780 nm (14 mW)
T1 construct: phosphate buffer (pH 7.4)/cell culture solution (containing 0.1% horse serum) (1:3) containing Aβ1-42 (10 μM)
Method: (§1) Aβ1-42 isopeptide (concentration: 250 μM in 0.1% aqueous solution of trifluoroacetic acid), angiotensin IV (200 μM aqueous solution), Met-enkephalin (200 μM aqueous solution), and somatostatin (200 μM aqueous solution) were added to a phosphate buffer or phosphate buffer saline (pH 7.4) (with 0.1 M aqueous solution of sodium hydroxide, as necessary) so that a final peptide concentration of 20 μM or 40 μM (pH 7.4) was reached. Before being subjected to oxygenation reaction, the Aβ1-42 solution was incubated at 37° C. for 1 to 3 hours. The phosphate buffer containing 40 μM of Aβ was diluted with a Dulbecco's modified Eagle's medium (DMEM, Life Technologies) containing 0.1% horse serum and buffered with 25 mM of 4-(2-hydroxyethyl)-1-piperazineethanesulfonic acid (HEPES).
(§2) Solutions of the compounds with a final concentration of 2 μM were used for evaluation of oxygenation of Aβ1-42. Solutions of the compounds with a final concentration of 5 μM were used for evaluation of peptide selectivity. Each mixture was subjected to light irradiation with an LED (wavelength: 500, 660, or 780 nm) at a distance of approximately 5 to 10 cm at room temperature. A control group without light irradiation was additionally prepared. Reaction was analyzed through monitor analysis with a MALDI-TOF MS. Degree of oxygenation was determined as a ratio: degree of oxygenation (%)=(total of MS intensities for n[O] adducts)/(MS intensity for native+total of MS intensities for n[O] adducts)×100. Aliquots of each reaction solution were desalted with a ZipTip U-C18 (Merck Millipore), as necessary, before mass spectrometry.
a: A phosphate buffer (pH 7.4) solution containing pre-aggregated Aβ1-42 (20 μM, incubated at 37° C. for 3 hours) and a catalyst (2 μM) was subjected to light irradiation (wavelength: 660 nm) at 37° C. for 30 minutes. Thereafter, the reaction mixture was analyzed by using a MALDI-TOF MS.
a: A phosphate buffer (pH 7.4) containing pre-aggregated Aβ1-42 (20 μM, obtained through incubation at 37° C. for 3 hours) and a catalyst (2 μM) were subjected to light irradiation at 780 nm (14 mW) at 37° C. for 30 minutes. The reaction mixture was analyzed by using a MALDI-TOF MS.

[2] = Maximum wavelength λmax of photocatalysts; type: physicochemical
Aβ1-42 [3] = molecular target: T1, Aβ1-42; assay: Oxygenation under mouse skin, Test Example 7; type: in vivo; conditions: microtube with Aβ1-42 20 μM aggregated 3 hours, implanted in back skin, LED 780 nm, 30 minutes
Method: A microtube containing a phosphate buffer containing Aβ1-42 (20 μM, aggregated in advance for 3 hours) and the compound E or a compound 3 [9-(6-bromo-3-methyl-1,3-benzotriazol-3-ium-2-yl)-julolidine] was implanted in the back skin of a wild mouse, and light irradiation with an LED lamp was performed from the outside of the mouse body at a wavelength of 780 nm for 30 minutes (FIG. 10). As a control experiment, another microtube containing the same components (Aβ1-42 (20 μM, aggregated in advance for 3 hours) and the compound E or the compound 3) was directly subjected to light irradiation outside of the mouse body. The reaction mixture was analyzed by using a MALDI-TOF MS, and then subjected to ZipTip treatment for analysis. The percentage of oxygenation ratio was calculated from the percentage of oxygenation ratio under the skin and the oxygenation ratio outside of the skin “[oxygenation ratio under mouse skin/oxygenation ratio outside of mouse skin]×100”.

Aβ1-42 [4] = molecular target: T1, Aβ1-42; assay: In vitro oxygenation experiment using Aβ1-42 as a substrate (MALDI-TOF MS), Test Example 1; type: biochemical; conditions: test compound 1 μM, Aβ1-42 10 μM, 37° C.
Method: An in vitro oxygenation experiment using Aβ1-42 as a substrate was conducted to confirm that each of the inventive compounds actually have Aβ oxygenation activity. A test compound (1 μM in each case) was added to phosphate buffer (pH 7.4)/cell culture solution (containing 0.1% horse serum) (1:3) containing Aβ1-42 (10 μM), and incubated under LED irradiation (wavelength: 660 nm, 730 nm) at 37° C., and then the reaction was tracked by using a mass spectrometer (MALDI-TOF MS). The native Aβ1-42 and the Na^+ adduct were mainly observed before light irradiation. After light irradiation, an ion peak indicating the presence of the oxygenated form was observed over time (FIG. 1, FIG. 2).

[5] = Stability of catalyst in neutral phosphate buffer without or under light irradiation (HPLC), Test Example 5; type: physicochemical; conditions: under light irradiation (660 nm)
Method: A neutral phosphate buffer containing a catalyst was incubated without light irradiation or under light irradiation (660 nm), and thereafter ethanol containing benzyl alcohol (as an internal standard) was added thereto, and analysis was performed by using HPLC.

PC 12 cells [6] = type: cell-based
Method: Rat pheochromocytoma PC 12 cells were suspended with DMEM containing 5% horse serum and 10% fetal bovine serum, seeded in a poly-D-lysine-coated 96-well plate at a concentration of 10,000 cells per well, and incubated in a 5% carbon dioxide atmosphere at 37° C. for 3 days. After the solvent was removed, the cells were washed with 150 μL of serum-free DMEM, and DMEM (75 μL) containing 0.1% horse serum was added thereto. Thereafter, the 96-well plate was incubated in a 5% carbon dioxide atmosphere at 37° C. for 1 day for use in oxygenation reaction. In oxygenation reaction, the compound E (100 μM dimethyl sulfoxide solution) was added to a phosphate buffer saline containing Aβ (aggregated in advance for 3 hours, 40 μM) and 25 μL of the above cell solution (final concentration of Aβ: 10 μM, final concentration of compound E: 1 μM). The mixture was irradiated with an LED (wavelength: 780 nm) at a distance of approximately 5 cm at 37° C. for 5 minutes. The cells were incubated in a 5% carbon dioxide atmosphere at 37° C. for 48 hours. The cell viability was measured by using the Cell Count Reagent SF (NACALAI TESQUE, INC., Kyoto, Japan) with WST-8 (2-(2-methoxy-4-nitrophenyl)-3-(4-nitrophenyl)-5-(2,4-disulfophenyl)-2H-tetrazolium).
b: LC50 (dark) indicates the toxicity of a compound itself, and LC50 (light) indicates the phototoxicity of a compound. The PC 12 cells were placed in dark or subjected to photocatalytic treatment under light irradiation (wavelength: 660 nm), and incubated at 37° C. for 5 minutes, and then in a 5% carbon dioxide atmosphere at 37° C. for 48 hours, for which the cell viability was analyzed (n=5, mean±SEM).
b: The PC 12 cells were treated together with a photocatalyst (1 μM) at 37° C. for 5 minutes in dark or under light irradiation (wavelength: 780 nm), and thereafter the cell viability was analyzed (n=3, mean±SEM).

PC 12 cells [7] = assay: Cytotoxicity under light irradiation, WST-8 cell viability, Test Example 2; type: cell-based, rat; conditions: LED 660 nm, 10 mW, 5 minutes, then 48 hours
Method: A culture medium for rat adrenal medulla-derived pheochromocytoma PC 12 cells (purchased from RIKEN, Japan) seeded on a poly-D-lysine-coated 96-well plate was replaced with 75 μL of a Dulbecco's modified Eagle's medium containing 0.1% horse serum, and the culture was incubated in a 5% CO2 atmosphere at 37° C. for 1 day, and 25 μL of a phosphate buffer saline (pH 7.4) containing a inventive compound was then added thereto. Thereafter, the mixed solution was incubated under LED irradiation (wavelength: 660 nm, 10 mW) (without light irradiation for dark) at 37° C. for 5 minutes. Further, the cell culture plate containing the reaction solution was incubated in a 5% CO2 atmosphere at 37° C. for 48 hours. Finally, the Cell Count Reagent SF (10 μL: purchased from NACALAI TESQUE, INC.) containing WST-8 was added, and the culture was incubated in a 5% CO2 atmosphere at 37° C. for 3 hours, and thereafter the cell viability was determined from the absorbance at 450 nm (reference wavelength: 655 nm).

Arctic Aβ1-38 = molecular target: T2, Arctic Aβ1-38 (Homo sapiens, UniProt P05067, E693G); type: biochemical; conditions: mouse brain lysate, riboflavin, light irradiation
T2 construct: The peak intensity decreased by 36%/53%/74% for Arctic Aβ1-38; from tissue; host or cells: cerebral cortex and hippocampus of App knock-in mouse
Method: The brain excised from an eight-month-old App knock-in (App^NL-C-F/NL-C-F) mouse (Alzheimer's model mouse) was separated into the cerebral cortex, the hippocampus, and the residual brain tissues. The cerebral cortex and the hippocampus were homogenized together in a phosphate buffer saline, and the suspension was stored at −80° C. […] At an arbitrary point of time, an arbitrary aliquot of the reaction mixture was diluted with formic acid to a final concentration of 70%, concentrated, and redissolved in a 6 M aqueous solution of urea.

Aβ peptide = molecular target: T3, Aβ peptide (Homo sapiens, UniProt P05067); assay: Aβ selectivity of oxygenation, Test Example 9; type: biochemical; conditions: peptide 20 μM, riboflavin 5 μM, 500 nm, 37° C., 30 minutes
T3 construct: Aβ1-42 isopeptide (concentration: 250 μM in 0.1% aqueous solution of trifluoroacetic acid)
Method: as §1
as §2, with “Each mixture was subjected to light irradiation with an LED (wavelength: 500, 660, or 780 nm) at a distance of approximately 5 to 10 cm at room temperature.” left out

Met-enkephalin (ME) = molecular target: T4, Met-enkephalin (ME) (Homo sapiens, UniProt P01210); assay: Aβ selectivity of oxygenation, Test Example 9; type: biochemical; conditions: peptide 20 μM, riboflavin 5 μM, 500 nm, 37° C., 30 minutes
T4 construct: angiotensin-IV (AT4), Met-enkephalin (ME), or somatostatin (Sst) (20 μM in each case)
Method: as §1
as §2, with “Each mixture was subjected to light irradiation with an LED (wavelength: 500, 660, or 780 nm) at a distance of approximately 5 to 10 cm at room temperature.” left out

angiotensin-IV (AT4) = molecular target: T5, angiotensin-IV (AT4) (Homo sapiens, UniProt P01019); assay: Aβ selectivity of oxygenation, Test Example 9; type: biochemical; conditions: peptide 20 μM, riboflavin 5 μM, 500 nm, 37° C., 30 minutes
T5 construct: angiotensin-IV (AT4), Met-enkephalin (ME), or somatostatin (Sst) (20 μM in each case)
Method: as §1
as §2, with “Each mixture was subjected to light irradiation with an LED (wavelength: 500, 660, or 780 nm) at a distance of approximately 5 to 10 cm at room temperature.” left out

somatostatin (Sst) = molecular target: T6, somatostatin (Sst) (Homo sapiens, UniProt P61278); assay: Aβ selectivity of oxygenation, Test Example 9; type: biochemical; conditions: peptide 20 μM, riboflavin 5 μM, 500 nm, 37° C., 30 minutes
T6 construct: angiotensin-IV (AT4), Met-enkephalin (ME), or somatostatin (Sst) (20 μM in each case)
Method: as §1
as §2, with “Each mixture was subjected to light irradiation with an LED (wavelength: 500, 660, or 780 nm) at a distance of approximately 5 to 10 cm at room temperature.” left out

CN(C)c1ccc(/C=C/C2=CC(=C/C=C3C=CC(=[N+](C)C)C=C3)/O[B-](F)(F)O2)cc1 [CRANAD-2, (T-4)-[(1E,6E)-1,7-bis[4-(dimethylamino)phenyl]-1,6-heptadiene-3,5-dionato-κO^3,κO^5]difluoroboron, reference compound]
Degree of oxygenation (%) of Aβ42 (λ = 660 nm) (Aβ1-42 [1]): trace | Maximum wavelength λmax (nm) ([2]; Table 1): 579 nm

C[n+]1c2ccc(Br)cc2nn1-c1cc2c3c(c1)CCCN3CCC2 [Compound 3, 9-(6-bromo-3-methyl-1,3-benzotriazol-3-ium-2-yl)-julolidine, reference compound]
percentage of oxygenation ratios [oxygenation ratio under mouse skin/oxygenation ratio outside of mouse skin]×100 (Aβ1-42 [3]): 12% | Degree of oxygenation (%) of Aβ42 (λ = 660 nm) (Aβ1-42 [1]): trace | Maximum wavelength λmax (nm) ([2]; Table 1): 456 nm

O=C(O)CCCCCN1CCCc2cc(/C=C/C3=[O+][B-](F)(C(F)(F)F)OC(/C=C/c4cc5c6c(c4)CCCN6CCC5)=C3Br)ccc21 (centres unmarked) [Compound I]
oxygenation of Aβ1-42 under light irradiation (Aβ1-42 [4]; LED irradiation at both 660 nm and 730 nm): oxygenation of the Aβ proceeded | stability of catalyst (ranking) [5]: stability was higher | Degree of oxygenation (%) of Aβ42 (λ = 780 nm) (Aβ1-42 [1]): 52% | CC50 (PC 12 cells [6]; PC 12 cells in dark, 37° C., 5 minutes, n=3, mean±SEM, Table 2, read-out: LC50 (dark)): > 10000 nM | CC50 (PC 12 cells [6]; PC 12 cells, light irradiation 780 nm, 37° C., 5 minutes, n=3, mean±SEM, Table 2, read-out: LC50 (light)): 1670 nM | Maximum wavelength λmax (nm) ([2]; Table 2): 645 nm

CN(C)c1ccc(/C=C/C2=C(Br)C(/C=C/c3ccc4c(c3)CCCN4CCCCCC(=O)O)=[O+][B-](F)(C(F)(F)C(F)(F)F)O2)cc1 (centres unmarked) [Compound J]
toxicity under light irradiation (ranking) (PC 12 cells [7]): higher in the order of the compound J, the compound K, and the compound L | stability of catalyst (ranking) [5]: higher in the order of BFCF3 (compound K)<BFCF2CF3 (compound J) | Degree of oxygenation (%) of Aβ42 (λ = 660 nm) (Aβ1-42 [1]): 79% | Degree of oxygenation (%) of Aβ42 (λ = 780 nm) (Aβ1-42 [1]): 41% | Maximum wavelength λmax (nm) ([2]; Table 1): 622 nm | Maximum wavelength λmax (nm) ([2]; Table 2): 620 nm

CN(C)c1ccc(/C=C/C2=C(Br)C(/C=C/c3ccc4c(c3)CCCN4CCCCCC(=O)O)=[O+][B-](F)(F)O2)cc1 [Compound L]
toxicity under light irradiation (ranking) (PC 12 cells [7]): higher in the order of the compound J, the compound K, and the compound L | stability of catalyst (ranking) [5]: stability was the lowest | Degree of oxygenation (%) of Aβ42 (λ = 660 nm) (Aβ1-42 [1]): 73% | CC50 (PC 12 cells [6]): 24 nM | Maximum wavelength λmax (nm) ([2]; Table 1): 623 nm

O=C(O)CCCCCN1CCCc2cc(/C=C/C3=[O+][B-](F)(C(F)(F)C(F)(F)C(F)(F)F)OC(/C=C/c4cc5c6c(c4)CCCN6CCC5)=C3Br)ccc21 (centres unmarked) [Compound S]
Degree of oxygenation (%) of Aβ42 (λ = 780 nm) (Aβ1-42 [1]): 37% | CC50 (PC 12 cells [6]): > 10000 nM | Maximum wavelength λmax (nm) ([2]; Table 2): 633 nm

CN(C)c1ccc(/C=C/C2=C(I)C(/C=C/c3ccc4c(c3)CCCN4CCCCCC(=O)O)=[O+][B-](F)(C(F)(F)F)O2)cc1 (centres unmarked) [M]
oxygenation of Aβ1-42 under light irradiation (Aβ1-42 [4]; LED irradiation at 730 nm): oxygenation of the Aβ proceeded | toxicity under light irradiation (ranking) (PC 12 cells [7]): iodine provides more reduced toxicity than in the case of bromine

Cc1cc2nc3c(=O)[nH]c(=O)nc-3n(C[C@H](O)[C@H](O)[C@H](O)CO)c2cc1C [riboflavin, reference compound]
consumption of Aβ1-38 (Arctic Aβ1-38): consumed to a significant degree | yield of oxygenated Aβ (Aβ peptide): 43% | yield of oxygenated Met-enkephalin (Met-enkephalin (ME)): 50% | yield of oxygenated angiotensin-IV (angiotensin-IV (AT4)): 35% | yield of oxygenated somatostatin (somatostatin (Sst)): 60%
